According to patent US20180296523A1, “USE OF POLYMETHOXYLATED FLAVONES TO AMELIORATE CIRCADIAN RHYTHM DISORDERS” (THE BOARD OF REGENTS OF THE UNIVERSITY OF TEXAS SY, priority 2017, published 2018):

Columns and labels:
RORα-LBD = biological target: T1, RORα-LBD (Homo sapiens, UniProt P35398); assay: Radioligand receptor binding assay with 25-[3H]-OHC, RORα-LBD; details: for competitive binding to RORα-LBD: in the presence of 4.5 nM 25-[3H]-OHC
T1 sequence (P35398 272-510 limits assumed): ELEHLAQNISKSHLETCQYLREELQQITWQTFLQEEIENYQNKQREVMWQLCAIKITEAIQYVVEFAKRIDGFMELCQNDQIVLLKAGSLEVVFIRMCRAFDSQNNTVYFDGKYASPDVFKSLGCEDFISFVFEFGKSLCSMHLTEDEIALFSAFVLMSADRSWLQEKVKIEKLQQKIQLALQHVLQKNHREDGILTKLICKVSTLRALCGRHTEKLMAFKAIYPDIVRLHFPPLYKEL
Method: (§1) Ligand binding was determined by filter binding assays to calculate the Kd value. […] Ki was determined using the Cheng-Prusoff equation.

GAL4 DBD-RORα LBD = biological target: T2, GAL4 DBD-RORα LBD (Mus musculus, UniProt P51448); assay: Mammalian one-hybrid reporter assay in HEK293T cells, GAL4-RORα; format: cell-based; details: ligand interaction reduces transcriptional activity
T2 construct: mouse RORα-LBD (aa 261-523); expressed in transfected cells; host or cells: HEK293T
T2 sequence (P51448 261-523): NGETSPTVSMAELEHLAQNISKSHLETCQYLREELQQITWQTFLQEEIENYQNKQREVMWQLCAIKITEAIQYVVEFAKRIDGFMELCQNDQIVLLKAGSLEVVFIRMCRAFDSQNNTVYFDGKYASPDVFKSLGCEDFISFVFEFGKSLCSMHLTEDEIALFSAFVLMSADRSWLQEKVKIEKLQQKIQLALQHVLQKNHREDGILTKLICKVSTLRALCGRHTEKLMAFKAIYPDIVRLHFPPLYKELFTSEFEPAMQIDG
Text: (§2) Plasmids containing the retinoic acid-related orphan receptor response element (RORE) from mouse Bmal1 promoter, pcDNA3.1B-G4DBD-RORαLBD and pcDNA3.1BG4DBD-RORγLBD were constructed in our lab. Specifically, the 1960 bp sequences (−1830/+130) of the mouse Bmal1 promoter harboring either WT ([…] (SEQ ID NO:1) and […] (SEQ ID NO:2)) or mutant ([…] (SEQ ID NO:3)) RORE were PCR amplified from mouse genomic DNA and cloned into pGL3-promoter luciferase vector. For expression of RORα or RORγ-GAL4 protein, mouse RORα-LBD (aa 261-523) or RORγ-LBD (aa 250-516) were PCR amplified from mouse genomic DNA and cloned into a GAL4-DBD-containing vector, pcDNA3.1B.
(§3) For mammalian one-hybrid assays, HEK293T cells were cotransfected with pcDNA3.1B-G4DBD-RORα/γLBD, pGL4.31 and TK promoter Renilla luciferase construct (tK.pRL). To investigate the regulation of the Bmal1 reporter, Hepa1-6 cells were cotransfected with Bmal1-WT or mutant RORE reporter plasmids, RORα, RORγ or Rev-erbα expression construct along with tK.pRL. Mouse and human siRNA targeting RORα and RORγ were purchased from Santa Cruz. Transfection was performed by Lipfectamine 2000 reagent (Invitrogen) Twenty-four hours after transfection, the cells were treated with vehicle or NOB. Lysates were collected 24 h after treatment, and firefly and Renilla luciferase activities were measured by using a Dual-Luciferase Reporter System (Promega).
(§4) For radio-ligand receptor binding assays, previously described protocols with minor modifications (Kumar et al., 2010; Wang et al., 2010b) were adopted.

GAL4 DBD-RORγ LBD = biological target: T3, GAL4 DBD-RORγ LBD (Mus musculus, UniProt P51450); assay: Mammalian one-hybrid reporter assay in HEK293T cells, GAL4-RORγ; format: cell-based; details: ligand interaction reduces transcriptional activity
T3 construct: RORγ-LBD (aa 250-516); expressed in transfected cells; host or cells: HEK293T
T3 sequence (P51450 250-516): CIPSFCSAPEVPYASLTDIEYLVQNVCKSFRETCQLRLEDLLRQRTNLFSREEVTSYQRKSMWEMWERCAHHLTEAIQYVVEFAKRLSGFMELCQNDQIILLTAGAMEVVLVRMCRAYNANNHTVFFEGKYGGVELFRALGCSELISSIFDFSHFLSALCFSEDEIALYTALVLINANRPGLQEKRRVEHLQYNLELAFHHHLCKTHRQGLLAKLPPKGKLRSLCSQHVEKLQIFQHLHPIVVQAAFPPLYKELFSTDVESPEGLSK
Text: as §2, §3, §4

[1] = system: Clock^Δ19/+ PER2::Luc reporter cells; assay: High-throughput chemical screen, PER2::Luc reporter rhythm; format: cell-based, mouse; details: for PER2::Luc reporter rhythm / circadian amplitude: Clock^Δ19/+ cells, forskolin pre-stimulated
Method: Specifically, the chemical screen for circadian clock modulators was conducted at the Chemical Genomics Core facility at the University of Texas Health Science Center at Houston (UTHSC-H). The in-house chemical library screened consisted of compounds from the National Institutes of Health (NIH) Clinical Collection, National Cancer Institute collection, and Microsource Spectrum Collection. Screening was conducted largely on the basis of the protocol previously described (Chen et al., 2012). […] Upon confluency, cells were incubated with 5 μM forskolin for 1-2 hr, followed by the addition of chemical compounds to the plates with robotic arms (Beckman), and then subjected to continuous monitoring over several days in a temperature-controlled EnVision microplate reader (Perkin Elmer). Data analysis was carried out by using the MultiCycle software (Actimetrics) for measurement of period, phase, and amplitude. The chemical screen for circadian clock modulators was conducted at the Chemical Genomics Core facility at the UTHSC-H. The in-house chemical library screened consists of compounds from NIH Clinical Collection, NCI collection and Microsource Spectrum Collection. The screening was conducted largely based on the protocol previously described (Chen et al., 2012). […] Cells were then incubated with 5 μM forskolin for 1-2 h followed by the addition of chemical compounds to the plates with robotic arms (Beckman), and then subjected to continuous monitoring over several days in a temperature-controlled EnVision microplate reader (Perkin Elmer). Data analysis was carried out by using the MultiCycle software (Actimetrics) for measurement of period, phase, and amplitude. […] Tissue explant experiments were conducted as described previously (Chen et al., 2012).

[2] = system: PER2::LucSV reporter fibroblast cells; assay: Dose response validation of reporter rhythm in PER2::LucSV cells; format: cell-based, mouse; details: PER2::LucSV reporter cells
Method: The chemical screen for circadian clock modulators was conducted at the Chemical Genomics Core facility at the UTHSC-H. The in-house chemical library screened consists of compounds from NIH Clinical Collection, NCI collection and Microsource Spectrum Collection. The screening was conducted largely based on the protocol previously described (Chen et al., 2012). […] Cells were then incubated with 5 μM forskolin for 1-2 h followed by the addition of chemical compounds to the plates with robotic arms (Beckman), and then subjected to continuous monitoring over several days in a temperature-controlled EnVision microplate reader (Perkin Elmer). Data analysis was carried out by using the MultiCycle software (Actimetrics) for measurement of period, phase, and amplitude. […] Tissue explant experiments were conducted as described previously (Chen et al., 2012).

RORγ-LBD = biological target: T4, RORγ-LBD (Homo sapiens, UniProt P51449); assay: Radioligand receptor binding assay with 25-[3H]-OHC, RORγ-LBD; details: in the presence of 4.5 nM 25-[3H]-OHC
T4 sequence (P51449 269-508 limits assumed): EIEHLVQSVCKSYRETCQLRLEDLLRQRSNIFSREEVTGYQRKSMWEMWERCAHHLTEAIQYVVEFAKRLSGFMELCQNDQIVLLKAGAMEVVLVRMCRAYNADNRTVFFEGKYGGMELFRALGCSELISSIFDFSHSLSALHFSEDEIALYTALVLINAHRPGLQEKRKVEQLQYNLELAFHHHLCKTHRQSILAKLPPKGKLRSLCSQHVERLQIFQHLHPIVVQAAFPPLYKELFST
Method: as §1

## C[C@H](CCCC(C)(C)O)[C@H]1CC[C@H]2[C@@H]3CC=C4C[C@@H](O)CC[C@]4(C)[C@H]3CC[C@]12C [25-[3H]—OHC, 25-[3H]-hydroxycholesterol]
RORα-LBD; Scatchard plot, RORα
  total number of binding sites (Bmax): 100 fmol/mg of protein

## CC(=O)Nc1nc(C)c(S(=O)(=O)Nc2ccc(C(O)(C(F)(F)F)C(F)(F)F)cc2)s1 [SR1001]
GAL4 DBD-RORα LBD
  activity on GAL4-RORα chimeric receptor: robust activities
GAL4 DBD-RORγ LBD
  activity on GAL4-RORγ chimeric receptor: robust activities

## O=C1C[C@@H](c2ccc(O)cc2)Oc2cc(O)cc(O)c21 [naringenin]
[1]
  PER2::Luc reporter rhythm / circadian amplitude: failed to enhance cellular circadian rhythms
[1]; PER2::LUC Clock^Δ19/+ reporter cells
  reporter luminescence: did not enhance the reporter luminescence
[2]
  reporter luminescence: did not enhance the reporter luminescence
RORα-LBD
  competitive binding to RORα-LBD: no direct binding
RORα-LBD; listed as Naringenin
  competitive binding to RORα-LBD: markedly diminished binding
RORγ-LBD
  competitive binding to RORγ-LBD: no direct binding
RORγ-LBD; listed as Naringenin
  competitive binding to RORγ-LBD: markedly diminished binding

## COc1ccc(-c2cc(=O)c3c(OC)c(OC)c(OC)c(OC)c3o2)cc1 [tangeretin]
[1]
  PER2::Luc reporter rhythm / circadian amplitude: similarly enhanced the PER2::Luc reporter rhythm
